The values that follow are results of earlier work, collected in patent US7378261B2, “Method for preparing para-hydroxystyrene by biocatalytic decarboxylation of para-hydroxycinnamic acid in a biphasic reaction medium” (E.I. du Pont de Nemours and Company, priority 2003, dated 2008).

One may read the log P as a log measure of how a compound divides between an organic and an aqueous phase.

The conditions of the data set: logarithm of solvent's partition coefficient in standard octanol:water mixture.

In the case of `CCCCCCCCC(C)O` (centres unmarked) [2-decanol], the lipophilicity (log P) was 3.71. As for `CCCCCC(C)O` (centres unmarked) [2-heptanol], the “log P” value is reported as 2.24. `CCCCCCCC(C)O` (centres unmarked) [2-nonanol]: the “log P” value is recorded as 3.22. As for `CCCCCCCCCC(C)=O` [2-undecanone], the “log P” value is recorded as 4.21.

For `CCCCCCCC(=O)CC` [3-decanone], the “log P” value was 3.2.

Consider `CCCCCCC(O)CCC` (centres unmarked) [4-decanol], for which the log partition coefficient (log P) is listed as 3.71. As to `CCCCCCC(=O)CCC` [4-decanone], the lipophilicity (log P) was 3.2. `CCCCCC` [hexane]: the lipophilicity (log P) is given as 3.9.
